The experiment concerns the target T1, PD-1/PD-L1 (Homo sapiens, UniProt Q9NZQ7).
T1 construct: TVMV protease site linker (C); made in house; host or cells: HEK293T cells
Description: PD-1/PD-L1 Homogenous Time-Resolved Fluorescence (HTRF) binding assay. Conditions: PD-L1-His 10 nM pre-incubated with inhibitor, PD-1-Ig 20 nM; read-out: HTRF IC50. Put shortly: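 HTRF read-out using europium cryptate anti-Ig (1 nM) and APC anti-His (20 nM) on extracellular-domain fusion proteins in dPBS/0.1% BSA/0.05% Tween-20. Inhibitor first incubated 15 min with 10 nM PD-L1-His, followed by 20 nM PD-1-Ig for another 15 min.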

Structures are written as SMILES. Starred links: 1 amine or outer side, 2 acyl side, 3 side chain; linkers in the order of their positions; H or OH if unused. Positions of bridges follow the written chain, without caps; N, C: chain ends. Non-standard residues stand in square brackets, D forms with d. Residues, ends and D or L forms follow the SMILES beside them. Groups on a side chain read outwards from the residue. *: point of attachment. Trp(1-CH2CO2Me) = COC(=O)Cn1cc(C[C@H](N)C(=O)O)c2ccccc21; Trp(1-CH2COOH) = N[C@@H](Cc1cn(CC(=O)O)c2ccccc12)C(=O)O; NH(benzothiophen-5-yl) = c1cc2cc(N*)ccc2s1; X38 = N#Cc1c[nH]c2c(NC(=S)*)cccc12; X75 = S=C(Nc1ccc(C2CC2)c2ccccc12)*; Hyp = O=C(O)[C@@H]1C[C@@H](O)CN1; X35 = Cc1n[nH]c2c(NC(=S)*)cccc12; X70 = Cc1coc2c(F)cc(NC(=S)*)cc12; X91 = Cc1cc(NC(=S)*)c2ccccc2n1; X60 = Cc1cc2cc(NC(=S)*)ccc2o1; NMeNle = CCCC[C@H](NC)C(=O)O; X16 = S=C(Nc1ccc2c(c1)OCO2)*; X7 = S=C(Nc1ccc2cc[nH]c2c1)*; X52 = c1ccc2c(N*)c[nH]c2c1; X59 = S=C(Nc1ccc2nsnc2c1)*; NMeA = CN[C@@H](C)C(=O)O; X71 = c1cc2c(cc1N*)OCCO2; Dab = NCC[C@H](N)C(=O)O; X45 = c1ccc2sc(N*)cc2c1; Dap = NC[C@H](N)C(=O)O; CO = O=C([*:1])[*:2]

T1 sequence (Q9NZQ7 18-239): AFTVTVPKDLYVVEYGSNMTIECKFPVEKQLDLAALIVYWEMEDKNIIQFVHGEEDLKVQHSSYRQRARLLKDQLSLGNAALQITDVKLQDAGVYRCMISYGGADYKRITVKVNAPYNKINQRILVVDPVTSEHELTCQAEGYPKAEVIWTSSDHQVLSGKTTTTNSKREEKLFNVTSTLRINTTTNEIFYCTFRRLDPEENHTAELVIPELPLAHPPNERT

As a reminder, the IC50 is the concentration that inhibits the measured activity by half. As for `CCCC[C@H]1C(=O)N(C)[C@@H](CCCC)C(=O)N[C@@H](CC(C)C)C(=O)N[C@H](C(=O)NCC(N)=O)CSCC(=O)N[C@@H](Cc2ccc(O)cc2)C(=O)N(C)[C@@H](C)C(=O)N[C@@H](CC(N)=O)C(=O)N2CCC[C@H]2C(=O)N[C@@H](CNC(=S)Nc2cc(C)nc3ccccc23)C(=O)N[C@@H](CC(C)C)C(=O)N2C[C@H](O)C[C@H]2C(=O)N[C@@H](Cc2c[nH]c3ccccc23)C(=O)N[C@@H](CCN)C(=O)N[C@@H](Cc2cn(CC(=O)O)c3ccccc23)C(=O)N1C` [Example 3053] ({CH2CO}-Y[NMeA]NP[Dap](X91)L[Hyp]W[Dab][Trp(1-CH2COOH)][NMeNle][NMeNle]LCG-NH2; thioether N-14), the concentration for half-maximal inhibition (IC50) was 3.4 nM.

For `CCCC[C@H]1C(=O)N(C)[C@@H](CCCC)C(=O)N[C@@H](CC(C)C)C(=O)N[C@H](C(=O)NCC(N)=O)CSCC(=O)N[C@@H](Cc2ccc(O)cc2)C(=O)N(C)[C@@H](C)C(=O)N[C@@H](CC(N)=O)C(=O)N2CCC[C@H]2C(=O)N[C@@H](CNC(=S)Nc2cc(F)c3occ(C)c3c2)C(=O)N[C@@H](CC(C)C)C(=O)N2C[C@H](O)C[C@H]2C(=O)N[C@@H](Cc2c[nH]c3ccccc23)C(=O)N[C@@H](CCN)C(=O)N[C@@H](Cc2cn(CC(=O)O)c3ccccc23)C(=O)N1C` [Example 3054] ({CH2CO}-Y[NMeA]NP[Dap](X70)L[Hyp]W[Dab][Trp(1-CH2COOH)][NMeNle][NMeNle]LCG-NH2; thioether N-14), the half-maximal inhibitory concentration (IC50) came to 1.3 nM.

For the compound `CCCC[C@H]1C(=O)N(C)[C@@H](CCCC)C(=O)N[C@@H](CC(C)C)C(=O)N[C@H](C(=O)NCC(N)=O)CSCC(=O)N[C@@H](Cc2ccc(O)cc2)C(=O)N(C)[C@@H](C)C(=O)N[C@@H](CC(N)=O)C(=O)N2CCC[C@H]2C(=O)N[C@@H](CNC(=S)Nc2ccc3oc(C)cc3c2)C(=O)N[C@@H](CC(C)C)C(=O)N2C[C@H](O)C[C@H]2C(=O)N[C@@H](Cc2c[nH]c3ccccc23)C(=O)N[C@@H](CCN)C(=O)N[C@@H](Cc2cn(CC(=O)O)c3ccccc23)C(=O)N1C` [Example 3055] ({CH2CO}-Y[NMeA]NP[Dap](X60)L[Hyp]W[Dab][Trp(1-CH2COOH)][NMeNle][NMeNle]LCG-NH2; thioether N-14), the IC50 was 2.8 nM.

Consider `CCCC[C@H]1C(=O)N(C)[C@@H](CCCC)C(=O)N[C@@H](CC(C)C)C(=O)N[C@H](C(=O)NCC(N)=O)CSCC(=O)N[C@@H](Cc2ccc(O)cc2)C(=O)N(C)[C@@H](C)C(=O)N[C@@H](CC(N)=O)C(=O)N2CCC[C@H]2C(=O)N[C@@H](CNC(=S)Nc2ccc3nsnc3c2)C(=O)N[C@@H](CC(C)C)C(=O)N2C[C@H](O)C[C@H]2C(=O)N[C@@H](Cc2c[nH]c3ccccc23)C(=O)N[C@@H](CCNC(=S)Nc2ccc3nsnc3c2)C(=O)N[C@@H](Cc2cn(CC(=O)OC)c3ccccc23)C(=O)N1C` [Example 3056] ({CH2CO}-Y[NMeA]NP[Dap](X59)L[Hyp]W[Dab](X59)[Trp(1-CH2CO2Me)][NMeNle][NMeNle]LCG-NH2; thioether N-14), for which the IC50 was 5.6 nM.

With `CCCC[C@H]1C(=O)N(C)[C@@H](CCCC)C(=O)N[C@@H](CC(C)C)C(=O)N[C@H](C(=O)NCC(N)=O)CSCC(=O)N[C@@H](Cc2ccc(O)cc2)C(=O)N(C)[C@@H](C)C(=O)N[C@@H](CC(N)=O)C(=O)N2CCC[C@H]2C(=O)N[C@@H](CNC(=O)Nc2ccc3sccc3c2)C(=O)N[C@@H](CC(C)C)C(=O)N2C[C@H](O)C[C@H]2C(=O)N[C@@H](Cc2c[nH]c3ccccc23)C(=O)N[C@@H](CCNC(=O)Nc2ccc3sccc3c2)C(=O)N[C@@H](Cc2cn(CC(=O)OC)c3ccccc23)C(=O)N1C` [Example 3057] ({CH2CO}-Y[NMeA]NP[Dap]([CO-NH(benzothiophen-5-yl)])L[Hyp]W[Dab]([CO-NH(benzothiophen-5-yl)])[Trp(1-CH2CO2Me)][NMeNle][NMeNle]LCG-NH2; thioether N-14), the half-inhibitory concentration (IC50) turned out to be 34 nM.

For the compound `CCCC[C@H]1C(=O)N(C)[C@@H](CCCC)C(=O)N[C@@H](CC(C)C)C(=O)N[C@H](C(=O)NCC(N)=O)CSCC(=O)N[C@@H](Cc2ccc(O)cc2)C(=O)N(C)[C@@H](C)C(=O)N[C@@H](CC(N)=O)C(=O)N2CCC[C@H]2C(=O)N[C@@H](CNC(=S)Nc2ccc(C3CC3)c3ccccc23)C(=O)N[C@@H](CC(C)C)C(=O)N2C[C@H](O)C[C@H]2C(=O)N[C@@H](Cc2c[nH]c3ccccc23)C(=O)N[C@@H](CCNC(=S)Nc2ccc(C3CC3)c3ccccc23)C(=O)N[C@@H](Cc2cn(CC(=O)O)c3ccccc23)C(=O)N1C` [Example 3058] ({CH2CO}-Y[NMeA]NP[Dap](X75)L[Hyp]W[Dab](X75)[Trp(1-CH2COOH)][NMeNle][NMeNle]LCG-NH2; thioether N-14), the IC50 is 13 nM.

As to `CCCC[C@H]1C(=O)N(C)[C@@H](CCCC)C(=O)N[C@@H](CC(C)C)C(=O)N[C@H](C(=O)NCC(N)=O)CSCC(=O)N[C@@H](Cc2ccc(O)cc2)C(=O)N(C)[C@@H](C)C(=O)N[C@@H](CC(N)=O)C(=O)N2CCC[C@H]2C(=O)N[C@@H](CNC(=O)Nc2ccc3c(c2)OCCO3)C(=O)N[C@@H](CC(C)C)C(=O)N2C[C@H](O)C[C@H]2C(=O)N[C@@H](Cc2c[nH]c3ccccc23)C(=O)N[C@@H](CCNC(=O)Nc2ccc3c(c2)OCCO3)C(=O)N[C@@H](Cc2cn(CC(=O)O)c3ccccc23)C(=O)N1C` [Example 3059] ({CH2CO}-Y[NMeA]NP[Dap]([CO-X71])L[Hyp]W[Dab]([CO-X71])[Trp(1-CH2COOH)][NMeNle][NMeNle]LCG-NH2; thioether N-14), the IC50 turned out to be 3 nM.

For the compound `CCCC[C@H]1C(=O)N(C)[C@@H](CCCC)C(=O)N[C@@H](CC(C)C)C(=O)N[C@H](C(=O)NCC(N)=O)CSCC(=O)N[C@@H](Cc2ccc(O)cc2)C(=O)N(C)[C@@H](C)C(=O)N[C@@H](CC(N)=O)C(=O)N2CCC[C@H]2C(=O)N[C@@H](CNC(=O)Nc2c[nH]c3ccccc23)C(=O)N[C@@H](CC(C)C)C(=O)N2C[C@H](O)C[C@H]2C(=O)N[C@@H](Cc2c[nH]c3ccccc23)C(=O)N[C@@H](CCNC(=O)Nc2c[nH]c3ccccc23)C(=O)N[C@@H](Cc2cn(CC(=O)O)c3ccccc23)C(=O)N1C` [Example 3060] ({CH2CO}-Y[NMeA]NP[Dap]([CO-X52])L[Hyp]W[Dab]([CO-X52])[Trp(1-CH2COOH)][NMeNle][NMeNle]LCG-NH2; thioether N-14), the half-inhibitory concentration (IC50) was 2.7 nM.

Turning to `CCCC[C@H]1C(=O)N(C)[C@@H](CCCC)C(=O)N[C@@H](CC(C)C)C(=O)N[C@H](C(=O)NCC(N)=O)CSCC(=O)N[C@@H](Cc2ccc(O)cc2)C(=O)N(C)[C@@H](C)C(=O)N[C@@H](CC(N)=O)C(=O)N2CCC[C@H]2C(=O)N[C@@H](CN)C(=O)N[C@@H](CC(C)C)C(=O)N2C[C@H](O)C[C@H]2C(=O)N[C@@H](Cc2c[nH]c3ccccc23)C(=O)N[C@@H](CCNC(=O)Nc2cc3ccccc3s2)C(=O)N[C@@H](Cc2cn(CC(=O)O)c3ccccc23)C(=O)N1C` [Example 3061] ({CH2CO}-Y[NMeA]NP[Dap]L[Hyp]W[Dab]([CO-X45])[Trp(1-CH2COOH)][NMeNle][NMeNle]LCG-NH2; thioether N-14), the IC50 is 5.6 nM.

Regarding `CCCC[C@H]1C(=O)N(C)[C@@H](CCCC)C(=O)N[C@@H](CC(C)C)C(=O)N[C@H](C(=O)NCC(N)=O)CSCC(=O)N[C@@H](Cc2ccc(O)cc2)C(=O)N(C)[C@@H](C)C(=O)N[C@@H](CC(N)=O)C(=O)N2CCC[C@H]2C(=O)N[C@@H](CNC(=S)Nc2ccc3c(c2)OCO3)C(=O)N[C@@H](CC(C)C)C(=O)N2C[C@H](O)C[C@H]2C(=O)N[C@@H](Cc2c[nH]c3ccccc23)C(=O)N[C@@H](CCN)C(=O)N[C@@H](Cc2cn(CC(=O)O)c3ccccc23)C(=O)N1C` [Example 3065] ({CH2CO}-Y[NMeA]NP[Dap](X16)L[Hyp]W[Dab][Trp(1-CH2COOH)][NMeNle][NMeNle]LCG-NH2; thioether N-14), the IC50 worked out at 0.98 nM.

As to `CCCC[C@H]1C(=O)N(C)[C@@H](CCCC)C(=O)N[C@@H](CC(C)C)C(=O)N[C@H](C(=O)NCC(N)=O)CSCC(=O)N[C@@H](Cc2ccc(O)cc2)C(=O)N(C)[C@@H](C)C(=O)N[C@@H](CC(N)=O)C(=O)N2CCC[C@H]2C(=O)N[C@@H](CNC(=S)Nc2cccc3c(C)n[nH]c23)C(=O)N[C@@H](CC(C)C)C(=O)N2C[C@H](O)C[C@H]2C(=O)N[C@@H](Cc2c[nH]c3ccccc23)C(=O)N[C@@H](CCN)C(=O)N[C@@H](Cc2cn(CC(=O)O)c3ccccc23)C(=O)N1C` [Example 3066] ({CH2CO}-Y[NMeA]NP[Dap](X35)L[Hyp]W[Dab][Trp(1-CH2COOH)][NMeNle][NMeNle]LCG-NH2; thioether N-14), the IC50 came out at 4.6 nM.

As for `CCCC[C@H]1C(=O)N(C)[C@@H](CCCC)C(=O)N[C@@H](CC(C)C)C(=O)N[C@H](C(=O)NCC(N)=O)CSCC(=O)N[C@@H](Cc2ccc(O)cc2)C(=O)N(C)[C@@H](C)C(=O)N[C@@H](CC(N)=O)C(=O)N2CCC[C@H]2C(=O)N[C@@H](CNC(=S)Nc2cccc3c(C#N)c[nH]c23)C(=O)N[C@@H](CC(C)C)C(=O)N2C[C@H](O)C[C@H]2C(=O)N[C@@H](Cc2c[nH]c3ccccc23)C(=O)N[C@@H](CCN)C(=O)N[C@@H](Cc2cn(CC(=O)O)c3ccccc23)C(=O)N1C` [Example 3067] ({CH2CO}-Y[NMeA]NP[Dap](X38)L[Hyp]W[Dab][Trp(1-CH2COOH)][NMeNle][NMeNle]LCG-NH2; thioether N-14), the IC50 was determined as 5.2 nM.

Regarding `CCCC[C@H]1C(=O)N(C)[C@@H](CCCC)C(=O)N[C@@H](CC(C)C)C(=O)N[C@H](C(=O)NCC(N)=O)CSCC(=O)N[C@@H](Cc2ccc(O)cc2)C(=O)N(C)[C@@H](C)C(=O)N[C@@H](CC(N)=O)C(=O)N2CCC[C@H]2C(=O)N[C@@H](CNC(=S)Nc2ccc3cc[nH]c3c2)C(=O)N[C@@H](CC(C)C)C(=O)N2C[C@H](O)C[C@H]2C(=O)N[C@@H](Cc2c[nH]c3ccccc23)C(=O)N[C@@H](CCNC(=S)Nc2ccc3cc[nH]c3c2)C(=O)N[C@@H](Cc2cn(CC(=O)O)c3ccccc23)C(=O)N1C` [Example 3068] ({CH2CO}-Y[NMeA]NP[Dap](X7)L[Hyp]W[Dab](X7)[Trp(1-CH2COOH)][NMeNle][NMeNle]LCG-NH2; thioether N-14), the IC50 worked out at 2 nM.

For the origin of these results see patent publication US20220389061A1, “IMMUNOMODULATORS” (priority 2019, published 2022).
